Source: patent US9035056B2, “Pyrido[4,3-b]indole and pyrido[3,4-b]indole derivatives and methods of use” (Medivation Technologies, Inc., priority 2011, dated 2015)

Columns and labels:
[1] = biological target: T1, human recombinant histamine H1 receptor (Homo sapiens, UniProt P35367); experiment: Histamine H1 radioligand binding ([3H]Pyrilamine); details: 0.1 μM compound; for inhibition at 0.1 µM: read-out: Binding data (Percentage inhibition) Histamine H1 (0.1 μM)
T1 construct: expressed in transfected cells; host or cells: CHO-K1
Experimental: To evaluate in radioligand binding assays the activity of compounds of the invention, human recombinant histamine H1 receptor expressed in Chinese hamster ovary (CHO) K1 cells (De Backer, M. et al, Biochem. Biophys. Res. Comm. 197(3):1601, 1993) in a modified Tris-HCl buffer (50 mM Tris-HCl, pH 7.4, 2 mM MgCl2, 100 mM NaCl, 250 mM Sucrose) was used. Compounds of the invention were incubated with 1.2 nM [^3H]Pyrilamine for 180 min at 25° C. Non-specific binding was estimated in the presence of 1 μM Pyrilamine. Receptor proteins were filtered and washed, the filters were then counted to determine [^3H]Pyrilamine specifically bound. Compounds were screened at 1 μM or lower, using 1% DMSO as vehicle. Biochemical assay results are presented as the percent inhibition of specific binding in Table 3.

[2] = biological target: T2, human recombinant adrenergic α2B receptor (Homo sapiens, UniProt P18089); experiment: Adrenergic α2B radioligand binding ([3H]Rauwolscine); details: for Percentage inhibition of ligand binding, Adrenergic α2B: 0.03 µM; for inhibition at 0.1 µM: 0.1 μM compound
T2 construct: expressed in transfected cells; host or cells: CHO-K1
T2 sequence (P18089 1-450): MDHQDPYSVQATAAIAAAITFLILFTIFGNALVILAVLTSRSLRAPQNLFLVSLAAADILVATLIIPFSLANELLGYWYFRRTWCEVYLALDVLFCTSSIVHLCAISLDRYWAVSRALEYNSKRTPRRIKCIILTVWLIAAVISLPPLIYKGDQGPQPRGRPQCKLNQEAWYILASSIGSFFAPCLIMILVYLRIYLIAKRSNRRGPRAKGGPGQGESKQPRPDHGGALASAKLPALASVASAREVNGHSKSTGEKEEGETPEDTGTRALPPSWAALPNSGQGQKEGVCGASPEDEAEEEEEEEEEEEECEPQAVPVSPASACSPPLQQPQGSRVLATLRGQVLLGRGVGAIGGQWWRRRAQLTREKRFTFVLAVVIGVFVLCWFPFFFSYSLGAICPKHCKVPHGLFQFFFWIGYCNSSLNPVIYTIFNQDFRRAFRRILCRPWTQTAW
Experimental: To evaluate in radioligand binding assays the activity of compounds of the invention, human recombinant adrenergic α2B receptor expressed in Chinese hamster ovary (CHO) K1 cells (Uhlen, S. et al, Eur. J. Pharmacol. 343(1):93, 1998) in a modified Tris-HCl buffer (50 mM Tris-HCl, pH 7.4, 12.5 mM MgCl2, 1 mM EDTA, 0.2% BSA) was used. Compounds of the invention were incubated with 2.5 nM [^3H]Rauwolscine for 60 min at 25° C. Non-specific binding was estimated in the presence of 10 μM Prazosin. Receptor proteins were filtered and washed, the filters were then counted to determine [^3H]Rauwolscine specifically bound. Compounds were screened at 1 μM or lower, using 1% DMSO as vehicle. Biochemical assay results are presented as the percent inhibition of specific binding in Table 3.

[3] = biological target: T3, human recombinant serotonin (5-Hydroxytryptamine) 5-HT2C receptor (Homo sapiens, UniProt P28335); experiment: Serotonin 5-HT2C radioligand binding ([3H]Mesulergine); details: 0.1 μM compound; for Percentage inhibition of ligand binding, Serotonin 5-HT2C: 0.1 µM; for inhibition at 0.1 µM: read-out: Percentage inhibition of ligand binding, Serotonin 5-HT2C
T3 construct: expressed in transfected cells; host or cells: CHO-K1
T3 sequence (P28335 33-458): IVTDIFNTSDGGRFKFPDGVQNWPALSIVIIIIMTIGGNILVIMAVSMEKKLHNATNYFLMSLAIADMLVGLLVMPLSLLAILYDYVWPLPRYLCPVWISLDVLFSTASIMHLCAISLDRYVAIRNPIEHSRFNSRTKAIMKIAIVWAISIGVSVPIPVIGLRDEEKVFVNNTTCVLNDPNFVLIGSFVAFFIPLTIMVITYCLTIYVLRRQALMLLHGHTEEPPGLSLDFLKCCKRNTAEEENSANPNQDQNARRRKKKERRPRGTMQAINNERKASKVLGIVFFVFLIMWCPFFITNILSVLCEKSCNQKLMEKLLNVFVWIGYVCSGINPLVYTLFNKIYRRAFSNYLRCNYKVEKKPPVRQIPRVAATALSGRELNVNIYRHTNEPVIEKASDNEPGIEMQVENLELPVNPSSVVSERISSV
Experimental: To evaluate in radioligand binding assays the activity of compounds of the invention, human recombinant serotonin (5-Hydroxytryptamine) 5-HT2C receptor expressed in Chinese hamster ovary (CHO) K1 cells (Wolf, W. et al, J. Neurochem. 69:1449, 1997) in a modified Tris-HCl buffer (50 mM Tris-HCl, pH 7.4, 0.1% Ascorbic Acid, 10 μM Pargyline) was used. Compounds of the invention were incubated with 1 nM [^3H]Mesulergine for 60 min at 25° C. Non-specific binding was estimated in the presence of 1 μM Mianserin. Receptor proteins were filtered and washed, the filters were then counted to determine [^3H]Mesulergine specifically bound. Compounds were screened at 1 μM or lower, using 1% DMSO as vehicle. Biochemical assay results are presented as the percent inhibition of specific binding in Table 5.

[4] = biological target: T4, rat adrenergic α1B receptor (Rattus norvegicus, UniProt P15823); experiment: Adrenergic α1B radioligand binding ([3H]Prazosin); details: 0.1 μM compound; for Percentage inhibition of ligand binding, Adrenergic α1B: 0.1 µM; for inhibition at 0.1 µM: read-out: Percentage inhibition of ligand binding, Adrenergic α1B
T4 construct: rat adrenergic α1B receptor obtained from Wistar Rat liver; from tissue; host or cells: Wistar rat liver
T4 sequence (P15823 1-515): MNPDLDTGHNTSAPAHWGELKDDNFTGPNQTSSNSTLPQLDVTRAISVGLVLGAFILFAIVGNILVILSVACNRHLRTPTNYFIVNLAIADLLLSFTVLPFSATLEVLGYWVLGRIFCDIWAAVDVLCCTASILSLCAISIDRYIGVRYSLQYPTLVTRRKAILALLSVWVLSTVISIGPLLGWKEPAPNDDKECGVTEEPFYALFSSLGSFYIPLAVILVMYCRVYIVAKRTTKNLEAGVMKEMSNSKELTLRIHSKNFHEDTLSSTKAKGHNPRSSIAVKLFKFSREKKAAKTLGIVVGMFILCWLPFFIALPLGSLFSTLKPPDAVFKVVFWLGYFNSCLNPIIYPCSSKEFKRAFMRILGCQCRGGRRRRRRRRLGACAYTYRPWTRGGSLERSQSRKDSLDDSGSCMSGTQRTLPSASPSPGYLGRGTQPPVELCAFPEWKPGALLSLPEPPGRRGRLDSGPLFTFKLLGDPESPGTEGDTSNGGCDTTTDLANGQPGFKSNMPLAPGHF
Experimental: To evaluate in radioligand binding assays the activity of compounds of the invention, rat adrenergic α1B receptor obtained from Wistar Rat liver (Garcia-S'ainz, J. et al, Biochem. Biophys. Res. Commun. 186:760, 1992; Michel, A. et al, Br. J. Pharmacol. 98:883, 1989) in a modified Tris-HCl buffer (50 mM Tris-HCl buffer, pH 7.4, 0.5 mM EDTA) was used. Compounds of the invention were incubated with 0.25 nM [^3H]Prazosin for 60 min at 25° C. Non-specific binding was estimated in the presence of 10 μM phentolamine. Receptor proteins were filtered and washed, the filters were then counted to determine [^3H]Prazosin specifically bound. Compounds were screened at 1 μM or lower, using 1% DMSO as vehicle. Biochemical assay results are presented as the percent inhibition of specific binding in Table 3.

[5] = read-out: Percentage inhibition of ligand binding, Adrenergic α2B

T1 sequence (P35367 whole entry): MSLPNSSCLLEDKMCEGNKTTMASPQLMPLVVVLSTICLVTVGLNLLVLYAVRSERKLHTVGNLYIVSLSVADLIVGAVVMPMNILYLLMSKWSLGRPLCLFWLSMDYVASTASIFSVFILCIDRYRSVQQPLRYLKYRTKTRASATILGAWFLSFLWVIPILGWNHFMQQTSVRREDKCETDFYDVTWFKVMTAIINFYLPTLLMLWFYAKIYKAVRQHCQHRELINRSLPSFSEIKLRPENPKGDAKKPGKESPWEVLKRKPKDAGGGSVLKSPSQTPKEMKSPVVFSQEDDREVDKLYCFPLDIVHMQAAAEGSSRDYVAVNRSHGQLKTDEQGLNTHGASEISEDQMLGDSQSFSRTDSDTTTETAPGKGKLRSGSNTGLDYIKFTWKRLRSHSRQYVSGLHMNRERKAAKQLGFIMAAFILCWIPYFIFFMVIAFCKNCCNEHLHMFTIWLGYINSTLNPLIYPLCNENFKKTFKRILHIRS

With `Cc1ccc2c(c1)c1c(n2CC2(O)CCCc3cnccc32)CCN(C)C1` (single isomer, unassigned) [ii-74a] as the compound, how does the “Binding data (Percentage inhibition) Histamine H1 (0.1 μM)” value [1] read?
The value was 1%.

What about the “Percentage inhibition of ligand binding, Adrenergic α2B” value (“Percentage inhibition … Adrenergic α2B” for short) ([2]; 0.03 μM compound) of the same compound?
Its value is 22%.

What about the “Percentage inhibition of ligand binding, Serotonin 5-HT2C” value [3] of the same compound?
Its value is 28%.

What about the “Percentage inhibition of ligand binding, Adrenergic α1B” value (shortened to “Percentage inhibition … Adrenergic α1B”) [4] of the same compound?
The value was 12%.

How did the “Binding data (Percentage inhibition) Histamine H1 (0.1 μM)” value [1] turn out when `Cc1ccc2c(c1)c1c(n2CC2(O)CCCc3cnccc32)CCN(C)C1` (single isomer, unassigned) [ii-74b] was run?
The value was 11%.

What about the “Percentage inhibition … Adrenergic α2B” value ([2]; 0.03 μM compound) of the same compound?
The value was 69%.

And the “Percentage inhibition of ligand binding, Serotonin 5-HT2C” value [3]?
The value was 53%.

What about the “Percentage inhibition … Adrenergic α1B” value [4] of the same compound?
The value was 83%.

How did the “Binding data (Percentage inhibition) Histamine H1 (0.1 μM)” value [1] turn out when `Cc1ccc2c(c1)c1c(n2CC2(O)CCCc3ncccc32)CCN(C)C1` (single isomer, unassigned) [ii-112a] was run?
The value was 4%.

And the inhibition at 0.03 µM ([2]; 0.03 μM compound, read-out: Percentage inhibition of ligand binding, Adrenergic α2B)?
The inhibition at 0.03 µM was 58%.

What about the inhibition at 0.1 µM [3] of the same compound?
Its inhibition at 0.1 µM is 42%.

And the “Percentage inhibition … Adrenergic α1B” value [4]?
The value was 79%.

How did the “Binding data (Percentage inhibition) Histamine H1 (0.1 μM)” value [1] turn out when `Cc1ccc2c(c1)c1c(n2CC2(O)CCCc3ncccc32)CCN(C)C1` (single isomer, unassigned) [ii-112b] was run?
Its value is 13%.

What about the “Percentage inhibition … Adrenergic α2B” value ([2]; 0.03 μM compound) of the same compound?
Its value is 40%.

What about the “Percentage inhibition of ligand binding, Serotonin 5-HT2C” value [3] of the same compound?
The value was 37%.

And the “Percentage inhibition … Adrenergic α1B” value [4]?
The value was 14%.

Which “Binding data (Percentage inhibition) Histamine H1 (0.1 μM)” value [1] does the source give for `Cc1ccc2c(c1)c1c(n2CC2(O)CCCc3ccncc32)CCN(C)C1` (single isomer, unassigned) [ii-113a] here?
Its value is 13%.

What about the “Percentage inhibition … Adrenergic α2B” value ([2]; 0.03 μM compound) of the same compound?
The value was 23%.

And the inhibition at 0.1 µM [3]?
The inhibition at 0.1 µM was 37%.

What about the “Percentage inhibition … Adrenergic α1B” value [4] of the same compound?
The value was 5%.

Which results are given for `Cc1ccc2c(c1)c1c(n2/C=C2/CCCc3ccccc32)CCN(C)C1` [i-2]?
inhibition at 0.1 µM [1]: 28%; inhibition at 0.1 µM [2, 5]: 81%; inhibition at 0.1 µM [3]: 100%; inhibition at 0.1 µM [4]: 85%

For `Cc1ccc2c(c1)c1c(n2/C=C2\CCCc3ccccc32)CCN(C)C1` [i-3], which inhibition at 0.1 µM [1] is on record?
The inhibition at 0.1 µM was 32%.

What about the inhibition at 0.1 µM [2, 5] of the same compound?
Its inhibition at 0.1 µM is 57%.

And the inhibition at 0.1 µM [3]?
Its inhibition at 0.1 µM is 100%.

And the inhibition at 0.1 µM [4]?
The inhibition at 0.1 µM was 66%.
